pEC50: −log10 of the molar value.
Columns and labels:
Format in all cases: cell-based
[1] = target: T1, ERα (Homo sapiens, UniProt P03372); experiment: ERα luciferase reporter gene experiment; conditions: HEK293 transfected with pBIND-ERα
T1 sequence (P03372 311-547 limits assumed): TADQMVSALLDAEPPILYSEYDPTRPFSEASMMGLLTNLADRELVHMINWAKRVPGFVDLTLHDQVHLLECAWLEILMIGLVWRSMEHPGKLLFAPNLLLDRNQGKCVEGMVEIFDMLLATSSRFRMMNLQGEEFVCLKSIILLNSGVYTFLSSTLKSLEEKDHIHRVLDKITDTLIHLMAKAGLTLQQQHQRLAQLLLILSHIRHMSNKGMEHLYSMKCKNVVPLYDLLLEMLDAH
Method: (§1) HEK293 cells were cultured in DMEM+10% FBS medium in a carbon dioxide incubator humidified at 37° C. at 5% carbon dioxide.
(§2) • 1) HEK293 cells were trypsinized, and the HEK293 cell resuspension was adjusted to 200,000 cell/mL in medium (96 well plate: 100 μL/well). • 2) Transfection reagent mixtures were prepared according to the table below, mixed well and left at room temperature for 20 minutes.
(§3) • 3) The prepared transfection mixtures were added to 10 mL of the cell density-adjusted resuspension, mixed well by turning the mixtures upside down, and seeded into a 96-well plate at a volume of 100 μL/well. • 4) The 96-well plate was incubated in a humidified incubator at 37° C. and 5% carbon dioxide for 24 hours.
(§4) The test plate was detected using the Dual-Glo Luciferase Assay System kit from Promega, and the fluorescence signal of Firefly Luciferase and the fluorescence signal of Renilla Luciferase were read using Enspire, respectively.
(§5) Y is the agonism and X is the concentration of the compound.

[2] = target: T2, MR (Homo sapiens, UniProt P08235); experiment: MR luciferase reporter gene experiment; conditions: HEK293 transfected with pBIND-MR
T2 construct: expressed in transfected cells; host or cells: HEK293
T2 sequence (P08235 1-984): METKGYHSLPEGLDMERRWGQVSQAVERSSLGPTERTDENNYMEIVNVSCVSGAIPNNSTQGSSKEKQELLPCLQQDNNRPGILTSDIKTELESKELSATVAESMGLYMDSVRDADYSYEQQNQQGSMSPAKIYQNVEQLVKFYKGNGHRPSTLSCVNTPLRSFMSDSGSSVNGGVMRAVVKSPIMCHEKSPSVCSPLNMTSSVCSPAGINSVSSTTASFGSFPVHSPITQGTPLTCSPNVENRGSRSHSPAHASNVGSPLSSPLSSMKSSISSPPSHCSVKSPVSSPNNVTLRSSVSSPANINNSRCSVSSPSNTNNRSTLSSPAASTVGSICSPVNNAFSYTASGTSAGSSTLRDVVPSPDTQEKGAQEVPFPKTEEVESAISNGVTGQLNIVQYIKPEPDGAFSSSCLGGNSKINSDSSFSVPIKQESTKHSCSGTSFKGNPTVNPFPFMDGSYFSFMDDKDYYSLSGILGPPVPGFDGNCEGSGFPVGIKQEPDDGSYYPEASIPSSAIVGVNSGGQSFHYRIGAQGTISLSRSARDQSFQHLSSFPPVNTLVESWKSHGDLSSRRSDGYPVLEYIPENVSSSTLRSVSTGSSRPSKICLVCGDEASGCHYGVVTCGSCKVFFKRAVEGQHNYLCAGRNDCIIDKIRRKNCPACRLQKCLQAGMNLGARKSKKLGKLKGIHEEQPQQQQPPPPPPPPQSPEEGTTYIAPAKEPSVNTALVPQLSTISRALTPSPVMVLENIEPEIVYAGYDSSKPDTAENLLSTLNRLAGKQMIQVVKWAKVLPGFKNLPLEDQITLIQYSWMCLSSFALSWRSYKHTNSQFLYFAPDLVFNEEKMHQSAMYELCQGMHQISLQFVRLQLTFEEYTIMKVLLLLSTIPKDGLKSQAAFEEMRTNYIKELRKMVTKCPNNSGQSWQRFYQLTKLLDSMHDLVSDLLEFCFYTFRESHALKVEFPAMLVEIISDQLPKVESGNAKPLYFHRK
Method: as §1, §2, §3, §4, §5

[3] = test system: human PBMC cells; experiment: IFN-α secretion from PBMC under R848 stimulation (compounds); conditions: R848 5 μM, 24 hours, mean ± standard deviation
Method: The compounds of the present application were tested for their inhibitory effect on the production of peripheral blood monocytes. The peripheral blood monocytes were treated in vitro with the ligand-drug conjugate at different concentrations, and IFNα and TNFα generated by the peripheral blood monocytes were quantitatively detected after a certain time. The compounds of the present invention were evaluated for in-vitro activity.
The cryopreserved human PBMC cells were resuspended in a complete medium and counted, and the cell suspension was adjusted to 2.5×10*6 cells/mL with the culture medium. After the suspension was centrifuged to collect the cells the next day, the cells were resuspended using fresh culture medium. Test compounds were diluted to 4-fold final concentration in cell culture medium, 50 μL of the compounds were added into a 96-well cell plate, and 100 μL of diluted cells ([…]) were added into each well of the 96-well plate containing the compounds, followed by addition of 50 μL R848 to a final concentration of 5 μM. The cell plate was incubated at 37° C. with 5% CO2 for 24 hours. The supernatant was collected, and the TNF-α and IFN-α concentration levels in the supernatant were detected using an ELISA kit.
50 μL of biotinylated antibody working solution was added into each well. After mixing well, the plate was covered with the plate-sealing membrane and incubated at room temperature for 3 hours. […] The procedure was repeated for 3 times. 100 μL of Streptavidin-HRP working solution was added into each well. The plate was covered with the plate-sealing membrane and incubated at room temperature for 20 minutes. The plate was washed for 3 times, 100 μL of TMB liquid was added into each well, and the plate was incubated for 25 minutes at room temperature (18-25° C.) in the dark. The reaction was stopped by adding 100 μL stop solution rapidly to each well. The reading at a wavelength of 450 nm was detected by an M2e instrument within 10 minutes after termination.
The contents of TNF-α and IFN-α were calculated from the OD450 values.

C[C@]12C=CC(=O)C=C1CC[C@@H]1[C@@H]2[C@@H](O)C[C@@]2(C)[C@H]1C[C@H]1O[C@@H](c3ccc(Cc4ccc(CO)cc4)cc3)O[C@]12C(=O)CO [Compound 4]
pEC50 [1]: < 6.00
pEC50 [2]: < 6.00
IFN-α secretion (pg/mL) from PBMC under R848 stimulation ([3]; compound 4 nM): 13.2 ± 13.2 pg/mL
IFN-α secretion (pg/mL) from PBMC under R848 stimulation ([3]; compound 20 nM): 27.9 ± 27.9 pg/mL
IFN-α secretion (pg/mL) from PBMC under R848 stimulation ([3]; compound 100 nM): 0 ± 0 pg/mL
